Laboratory results as given in ChEMBL document CHEMBL1157726, “Synthesis, characterization and antiglaucoma activity of a novel proton transfer compound and a mixed-ligand Zn(II) complex” (Bioorg Med Chem, 2010).

Experiments:
Carbonic anhydrase 1 [1] = target: T1, Carbonic anhydrase 1 (Homo sapiens, UniProt P00915); test: Inhibition of esterase-activity of CA1 from human erythrocytes by spectrophotometry
Carbonic anhydrase 1 [2] = target: T1, Carbonic anhydrase 1; test: Inhibition of hydratase-activity of CA1 from human erythrocytes by CO2-hydration method
Carbonic anhydrase 1 [3] = target: T1, Carbonic anhydrase 1; test: Inhibition of CA1 from human erythrocytes by Lineweaver-Burke analysis
Carbonic anhydrase 2 [4] = target: T2, Carbonic anhydrase 2 (Homo sapiens, UniProt P00918); test: Inhibition of hydratase-activity of human erythrocytes CA2 by CO2-hydration method
Carbonic anhydrase 2 [5] = target: T2, Carbonic anhydrase 2; test: Inhibition of esterase-activity of human erythrocytes CA2 by spectrophotometry
Carbonic anhydrase 2 [6] = target: T2, Carbonic anhydrase 2; test: Inhibition of human erythrocytes CA2 by Lineweaver-Burke analysis

T1 sequence (P00915 whole entry): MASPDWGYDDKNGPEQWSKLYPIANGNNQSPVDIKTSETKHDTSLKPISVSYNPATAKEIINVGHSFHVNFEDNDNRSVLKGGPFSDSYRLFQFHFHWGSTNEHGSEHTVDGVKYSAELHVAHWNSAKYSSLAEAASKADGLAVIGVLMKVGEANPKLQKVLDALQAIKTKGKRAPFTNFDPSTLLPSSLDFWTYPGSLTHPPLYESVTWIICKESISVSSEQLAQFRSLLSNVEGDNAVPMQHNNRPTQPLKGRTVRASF

`NS(=O)(=O)c1cc(C(=O)O)c(Cl)cc1Cl` showed an IC50 (Carbonic anhydrase 1 [1]; read-out: IC50) of 3200 nM, an IC50 (Carbonic anhydrase 1 [2]; read-out: IC50) of 430 nM and an IC50 (Carbonic anhydrase 1 [3]; read-out: IC50) of 7700 nM. The IC50 (Carbonic anhydrase 2 [4]; read-out: IC50) was 380 nM, the IC50 (Carbonic anhydrase 2 [5]; read-out: IC50) was 18000 nM and the IC50 (Carbonic anhydrase 2 [6]; read-out: IC50) was 22000 nM.
For `NCc1ccccn1`, the IC50 (Carbonic anhydrase 1 [1]) was “Not Active”, the IC50 (Carbonic anhydrase 1 [2]) was “Not Active” and the IC50 (Carbonic anhydrase 1 [3]) was “Not Active”. The IC50 (Carbonic anhydrase 2 [4]) was “Not Active”, the IC50 (Carbonic anhydrase 2 [5]) was “Not Active” and the IC50 (Carbonic anhydrase 2 [6]) was “Not Active”.
For `NCc1ccccn1.NS(=O)(=O)c1cc(C(=O)O)c(Cl)cc1Cl`, the IC50 (Carbonic anhydrase 1 [1]; read-out: IC50) was 320 nM, the IC50 (Carbonic anhydrase 1 [2]; read-out: IC50) was 260 nM and the IC50 (Carbonic anhydrase 1 [3]; read-out: IC50) was 250 nM. The IC50 (Carbonic anhydrase 2 [4]; read-out: IC50) was 300 nM, the IC50 (Carbonic anhydrase 2 [5]; read-out: IC50) was 290 nM and the IC50 (Carbonic anhydrase 2 [6]; read-out: IC50) was 220 nM.
